{"source": "paper PMC9496321", "about": "“6-Furopyridine Hexamethylene Amiloride Is a Non-Selective P2X7 Receptor Antagonist” (Biomolecules, 2022)", "key": {"[1]": {"system": "hP2X7-mediated IL-1β release", "assay": "Whole blood IL-1β release assay", "format": "cell-based", "conditions": "30 μM compound, 6 mM ATP, LPS-primed human whole blood", "experimental": "Whole blood IL-1β release assays were conducted as described. Briefly, whole human blood was mixed with an equal volume of serum-free RPMI-1640 medium containing LPS (200 ng/mL), added to a flat-bottom 96-well plate and incubated (37 °C, 95% air/5% CO2, 105 min). Compounds (30 μM) or vehicle (DMSO) were added to respective wells and incubated (37 °C, 95% air/5% CO2, 15 min). […] Plates were centrifuged (700× g, 10 min) with the resulting supernatants collected and stored at −80 °C. hIL-1β concentrations were determined using a Human IL-1β ELISA (Thermo Fisher Scientific) according to the manufacturer’s instructions. Samples above the detection limit (7500 pg/mL) were set at 7500 pg/mL for statistical analysis."}, "[2]": {"biological_target": "T1, P2X7 (Homo sapiens, UniProt Q99572)", "T1 sequence (Q99572 1-595)": "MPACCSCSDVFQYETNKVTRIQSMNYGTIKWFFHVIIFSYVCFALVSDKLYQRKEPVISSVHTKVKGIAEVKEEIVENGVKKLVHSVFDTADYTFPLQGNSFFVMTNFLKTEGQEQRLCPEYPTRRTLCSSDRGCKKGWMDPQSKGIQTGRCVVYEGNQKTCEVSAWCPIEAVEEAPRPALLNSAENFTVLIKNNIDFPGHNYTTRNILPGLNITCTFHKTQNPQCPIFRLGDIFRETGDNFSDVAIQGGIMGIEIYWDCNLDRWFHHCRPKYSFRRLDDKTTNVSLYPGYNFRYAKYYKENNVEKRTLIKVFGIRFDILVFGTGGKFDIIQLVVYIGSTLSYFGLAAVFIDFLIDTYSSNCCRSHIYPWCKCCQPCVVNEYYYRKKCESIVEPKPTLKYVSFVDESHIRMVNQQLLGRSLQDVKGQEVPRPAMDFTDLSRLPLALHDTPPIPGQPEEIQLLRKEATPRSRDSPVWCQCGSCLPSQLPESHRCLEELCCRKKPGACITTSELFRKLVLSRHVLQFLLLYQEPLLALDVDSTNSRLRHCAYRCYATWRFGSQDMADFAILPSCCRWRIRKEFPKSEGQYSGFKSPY", "assay": "ATP-induced YO-PRO-1 uptake into human T cells (PBMCs)", "format": "cell-based", "design": "Human peripheral blood mononuclear cells (PBMCs) were pre-incubated with DMSO (vehicle) or 30 μM 6-FPHMA; endogenous in cells; host or cells: cryopreserved human PBMCs (CD3+, CD4+, CD8+ T cells), four donors", "conditions": "30 μM compound, 1 mM ATP", "experimental": "ATP-mediated uptake assays were conducted as described with either ethidium bromide or YO-PRO-1 iodide. Briefly, RPMI8226, HEK-hP2X7, HEK-mP2X7, HEK-cP2X7 or cryopreserved human peripheral blood mononuclear cells (PBMCs) were washed thrice with LDM (300× g, 5 min), resuspended in LDM and 1 × 10^6 cells were added to individual tubes. Cells were pre-incubated in the absence of compound (37 °C, 5 min) or in the presence of compound or vehicle (DMSO) (37 °C, 15 min) as indicated. […] An equal volume of ice-cold Mg^2+ stop solution was added and cells centrifuged (300× g, 5 min). Cells were washed twice in LDM (300× g, 5 min), resuspended and data were collected with an LSR Fortessa X-20 flow cytometer. MFI of ethidium^+ or YO-PRO-1^2+ was determined using FlowJo."}, "[3]": {"biological_target": "T1, P2X7", "design": "endogenous in cells", "conditions": "human leukemic B cells, cited from earlier work"}, "[4]": {"system": "mouse (m) P2X7", "design": "method as in PMID 7514597", "conditions": "40 μM compound, Xenopus oocytes with mP2X7 mRNA; cited from earlier work"}, "[5]": {"system": "human (h) P2X7", "design": "method as in PMID 9720806", "conditions": "10 μM compound, HEK-hP2X7 cells; cited from earlier work"}, "[6]": {"system": "mP2X7", "design": "method as in PMID 11181928", "conditions": "cited from earlier work"}, "[7]": {"biological_target": "T1, P2X7", "conditions": "human leukaemic lymphocytes, cited from earlier work; for inhibition of ATP-induced Na+ fluxes: 40 μM compound"}, "[8]": {"biological_target": "T2, hP2X7 (Homo sapiens, UniProt Q99572)", "T2 construct": "expressed in transfected cells; host or cells: HEK293 cells, stably transfected (HEK-hP2X7)", "T2 sequence (Q99572 1-595)": "T1 sequence (Q99572 1-595)", "design": "method as in PMID 11181928", "conditions": "16 μM BzATP; cited from earlier work"}, "[9]": {"biological_target": "T2, hP2X7", "assay": "ATP-induced ethidium+ uptake in stably transfected HEK-hP2X7 cells (flow cytometry)", "format": "cell-based", "conditions": "any concentration up to 30 μM, 450 μM ATP, HEK-hP2X7 cells"}, "[10]": {"biological_target": "T3, endogenous hP2X7 (Homo sapiens, UniProt Q99572)", "T3 construct": "endogenous in cells; host or cells: RPMI8226 cells", "T3 sequence (Q99572 1-595)": "T1 sequence (Q99572 1-595)", "assay": "ATP-induced ethidium+ uptake in RPMI8226 multiple myeloma cells (flow cytometry)", "format": "cell-based", "conditions": "any concentration up to 30 μM, 300 μM ATP, RPMI8226 cells"}, "[11]": {"biological_target": "T1, P2X7", "assay": "Plate-based flow cytometric YO-PRO-1 dye uptake compound screen in RPMI8226 cells", "format": "cell-based", "design": "endogenous in cells; host or cells: RPMI8226 cells", "conditions": "5 μM compound, 250 μM ATP; also previous studies", "experimental": "RPMI8226 cells were washed thrice with low-divalent medium (LDM) (145 mM NaCl, 2 mM KCl, 0.2 mM CaCl2, 13 mM D-glucose and 10 mM HEPES, pH 7.5) and 1 × 10^5 cells were added to each well of a 96-well flat-bottomed plate. Amiloride derivatives, at 10 μM (final concentration 5 μM) or vehicle (DMSO) were added, and plates pre-incubated (37 °C, 15 min). […] Wells were washed twice with LDM (300× g, 5 min) and cells were resuspended in LDM. Data was acquired with an Attune NxT Flow Cytometer an Autosampler (Thermo Fisher Scientific). Mean fluorescent intensity (MFI) of YO-PRO-1^+ uptake was determined using FlowJo."}}}
{"smiles": "CCOc1ccc(Nc2ccc(/C(=C3C=C/C(=[N+](/CC)Cc4cccc(S(=O)(=O)[O-])c4)C=C/3C)c3ccc(N(CC)Cc4cccc(S(=O)(=O)O)c4)cc3C)cc2)cc1", "note": "[BBG, Brilliant Blue G]", "values": [{"measurement": "reduction of ATP-induced IL-1β compared to vehicle control", "setting": "[1]", "result": "did not alter"}, {"measurement": "reduction of ATP-induced YO-PRO-1 uptake into CD3+ T cells", "setting": "[2]", "result": "90 ± 8", "unit": "%"}, {"measurement": "reduction of ATP-induced YO-PRO-1 uptake into CD4+ T cells", "setting": "[2]", "result": "83 ± 17", "unit": "%"}, {"measurement": "reduction of ATP-induced YO-PRO-1 uptake into CD8+ T cells", "setting": "[2]", "result": "72 ± 22", "unit": "%"}]}
{"smiles": "NC(N)=NC(=O)c1nc(Cl)c(N2CCCCCC2)nc1N", "note": "[HMA, 5-(N,N-hexamethylene) amiloride]", "values": [{"measurement": "inhibition of ATP-induced ethidium+ uptake", "setting": "[3]; 20 μM compound", "result": 50, "unit": "%"}, {"measurement": "concentration required for complete inhibition of ATP-induced ethidium+ uptake", "setting": "[3]", "result": "> 100", "unit": "µM"}, {"measurement": "inhibition of ATP- and BzATP-induced currents", "setting": "[4]", "result": "partially inhibited"}, {"measurement": "inhibition of BzATP-induced inward currents", "setting": "[5]", "result": 30, "unit": "%"}, {"measurement": "effect on mP2X7-mediated dye uptake at low BzATP", "setting": "[6]; 16 μM BzATP", "result": "potentiated"}, {"measurement": "potency of inhibition of BzATP-induced uptake, mP2X7 compared to hP2X7", "setting": "[6]; HEK293 cells", "result": "reduced potency"}, {"measurement": "inhibition of ATP-induced Na+ fluxes", "setting": "[7]", "result": 95, "unit": "%"}, {"measurement": "potentiation of dye uptake at low BzATP, hP2X7", "setting": "[8]", "result": "not observed"}]}
{"smiles": "N=C(N)NC(=O)c1nc(-c2cc3cnccc3o2)c(N)nc1N", "note": "[6-FPA, 6-furopyridine-substituted amiloride]", "values": [{"measurement": "inhibition of hP2X7-mediated dye uptake", "setting": "[9]", "result": "did not inhibit"}, {"measurement": "inhibition of hP2X7-mediated dye uptake", "setting": "[10]", "result": "did not inhibit"}]}
{"smiles": "Cc1nc(N=Nc2ccc(S(=O)(=O)O)cc2S(=O)(=O)O)c(COP(=O)(O)O)c(C=O)c1O", "note": "[PPADS, Pyridoxalphosphate-6-azophenyl-2′,4′-disulfonic acid]", "values": [{"measurement": "reduction of ATP-induced IL-1β compared to vehicle control", "setting": "[1]", "result": "did not alter"}, {"measurement": "reduction of ATP-induced YO-PRO-1 uptake into CD3+ T cells", "setting": "[2]", "result": "85 ± 9", "unit": "%"}, {"measurement": "reduction of ATP-induced YO-PRO-1 uptake into CD4+ T cells", "setting": "[2]", "result": "85 ± 11", "unit": "%"}, {"measurement": "reduction of ATP-induced YO-PRO-1 uptake into CD8+ T cells", "setting": "[2]", "result": "86 ± 7", "unit": "%"}]}
{"smiles": "N=C(N)NC(=O)c1nc(Cl)c(N)nc1N", "note": "[Amiloride]", "values": [{"measurement": "block of hP2X7 in screening assay", "setting": "[11]", "result": "blocks hP2X7 relatively poorly"}, {"measurement": "inhibition of ATP-mediated Na+ fluxes", "setting": "[7]; 1 mM compound", "result": 50, "unit": "%"}]}
{"smiles": "O=C(NCC1(N2CCN(c3ccccc3)CC2)CCOCC1)c1cccnc1Sc1ccccc1", "note": "[JNJ-47965567]", "values": [{"measurement": "reduction of ATP-induced IL-1β compared to vehicle control", "setting": "[1]", "result": "98 ± 1", "unit": "%"}, {"measurement": "reduction of ATP-induced YO-PRO-1 uptake into CD3+ T cells", "setting": "[2]", "result": "79 ± 14", "unit": "%"}, {"measurement": "reduction of ATP-induced YO-PRO-1 uptake into CD4+ T cells", "setting": "[2]", "result": "78 ± 15", "unit": "%"}, {"measurement": "reduction of ATP-induced YO-PRO-1 uptake into CD8+ T cells", "setting": "[2]", "result": "80 ± 11", "unit": "%"}]}
{"smiles": "CCN(c1nc(N)c(C(=O)N=C(N)N)nc1Cl)C(C)C", "note": "[EIPA, 5-(N-ethyl-N-isopropyl) amiloride]", "values": [{"measurement": "inhibition of ATP-induced Na+ fluxes", "setting": "[7]", "result": 72, "unit": "%"}]}
